Experimental data as given in US20020137929A1, “1 - (3-heterocyclylphenyl) isothiourea, -isourea, -guanidine and -amidine herbicidal agents” (Intellectual Property Department, BASF Aktiengesellschaft, priority 1998, published 2002).

How the values were obtained:
[1] = tested on: GLXMAW (Soybean, Williams); experiment: Postemergence herbicidal evaluation; type: in vivo, Glycine max, (L.) Merr. cv Williams; conditions: for GLXMAW herbicidal rating: postemergence
Summary of the method: (§1)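 First, seedlings were raised for around two weeks. Next, test material in 50/50 acetone/water containing 0.5% TWEEN 20 was sprayed through a nozzle at 40 psi, equivalent to about 0.0156–0.500 kg/ha. Finally, after 4–5 weeks in the greenhouse, plants were rated 0–9.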

ECHCG (Barnyardgrass) [2] = experiment: Preemergence herbicidal evaluation; type: in vivo, Echinochloa crus-galli; conditions: rated 4-5 weeks after treatment
Summary of the method: (§2)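 Steps: mix seeds into potting soil; plant atop ~1 inch soil; spray compound in aqueous acetone (~0.0156-0.500 kg/ha equivalent); maintain in greenhouse with watering; rate visually 0-9 versus control at 4-5 weeks.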

ECHCG (Barnyardgrass) [3] = experiment: Postemergence herbicidal evaluation; type: in vivo, Echinochloa crus-galli; conditions: for ECHCG herbicidal rating: postemergence
Summary of the method: as §1

SETVI (Foxtail, Green) = experiment: Postemergence herbicidal evaluation; type: in vivo, Setaria viridis; conditions: for SETVI herbicidal rating: postemergence
Summary of the method: as §1

ABUTH (Velvetleaf) = experiment: Postemergence herbicidal evaluation; type: in vivo, Abutilon theophrasti; conditions: for ABUTH herbicidal rating: postemergence
Summary of the method: as §1

[4] = tested on: ECHORC (Watergrass (Calif.)); experiment: Postemergence weed control under flooded paddy conditions; type: in vivo, Echinochloa oryzoides; conditions: postemergence weeds, 3-4 weeks after treatment
Summary of the method: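 Herbicidal effect is judged by eye on a 0–9 scale versus control, 3–4 weeks after dosing. Dosing is into flood water kept 1.5–3 cm over the soil, at about 0.0313–0.500 kg/ha in aqueous/acetone 50/50 v/v, on 3–5 cm weeds and 1.5–2.5-leaf rice seedlings.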

[5] = tested on: IPOHE (Morningglory, Ivyleaf); experiment: Preemergence herbicidal evaluation; type: in vivo, Ipomoea hederacea; conditions: rated 4-5 weeks after treatment
Summary of the method: as §2

AMBEL (Ragweed, Common) = experiment: Postemergence herbicidal evaluation; type: in vivo, Ambrosia artemisifolia; conditions: for AMBEL herbicidal rating: postemergence
Summary of the method: as §1

GALAP (Galium) = experiment: Preemergence herbicidal evaluation; type: in vivo, Galium aparine; conditions: rated 4-5 weeks after treatment
Summary of the method: as §2

CASOB (Sicklepod) = experiment: Preemergence herbicidal evaluation; type: in vivo, Cassia obtusifolia; conditions: rated 4-5 weeks after treatment
Summary of the method: as §2

[6] = tested on: TRZAWR (Wheat, Winter, cv Riband); experiment: Postemergence herbicidal evaluation; type: in vivo, Triticum aestivum; conditions: for TRZAWR herbicidal rating: postemergence
Summary of the method: as §1

ZEAMX (Corn, Field) = experiment: Preemergence herbicidal evaluation; type: in vivo, Zea mays; conditions: rated 4-5 weeks after treatment
Summary of the method: as §2

[7] = tested on: IPOHE (Morningglory, Ivyleaf); experiment: Postemergence herbicidal evaluation; type: in vivo, Ipomoea hederacea; conditions: for IPOHE herbicidal rating: postemergence
Summary of the method: as §1

[8] = tested on: CHEAL (Lambsquarters, Common); experiment: Preemergence herbicidal evaluation; type: in vivo, Chenopodium album; conditions: rated 4-5 weeks after treatment
Summary of the method: as §2

SMILES: Cn1c(C(F)(F)F)cc(=O)n(-c2cc(N=C3SCC(=O)N3Cc3ccccc3)c(Cl)cc2F)c1=O [Compound 26]
- GLXMAW herbicidal rating ([1]; rate 0.0156 kg/ha): 5.5
- GLXMAW herbicidal rating ([1]; rate 0.0313 kg/ha): 5.5
- GLXMAW herbicidal rating ([1]; rate 0.0625 kg/ha): 6.0
- Preemergence herbicidal rating ECHCG (ECHCG (Barnyardgrass) [2]; rate 0.0156 kg/ha): 0.0
- Preemergence herbicidal rating ECHCG (ECHCG (Barnyardgrass) [2]; rate 0.0313 kg/ha): 0.0
- Preemergence herbicidal rating ECHCG (ECHCG (Barnyardgrass) [2]; rate 0.0625 kg/ha): 0.0
- Preemergence herbicidal rating ECHCG (ECHCG (Barnyardgrass) [2]; rate 0.1250 kg/ha): 1.0
- Preemergence herbicidal rating ECHCG (ECHCG (Barnyardgrass) [2]; rate 0.2500 kg/ha): 2.0
- ECHCG herbicidal rating (ECHCG (Barnyardgrass) [3]; rate 0.0156 kg/ha): 0.0
- ECHCG herbicidal rating (ECHCG (Barnyardgrass) [3]; rate 0.0313 kg/ha): 0.0
- ECHCG herbicidal rating (ECHCG (Barnyardgrass) [3]; rate 0.0625 kg/ha): 0.0
- SETVI herbicidal rating (SETVI (Foxtail, Green); rate 0.0156 kg/ha): 0.0
- SETVI herbicidal rating (SETVI (Foxtail, Green); rate 0.0313 kg/ha): 0.0
- SETVI herbicidal rating (SETVI (Foxtail, Green); rate 0.0625 kg/ha): 0.0
- ABUTH herbicidal rating (ABUTH (Velvetleaf); rate 0.0156 kg/ha): 9.0
- ABUTH herbicidal rating (ABUTH (Velvetleaf); rate 0.0313 kg/ha): 9.0
- ABUTH herbicidal rating (ABUTH (Velvetleaf); rate 0.0625 kg/ha): 9.0
- Herbicidal rating ECHORC ([4]; rate 0.0313 kg/ha): 7.0
- Herbicidal rating ECHORC ([4]; rate 0.0625 kg/ha): 9.0
- Herbicidal rating ECHORC ([4]; rate 0.1250 kg/ha): 9.0
- Herbicidal rating ECHORC ([4]; rate 0.2500 kg/ha): 9.0
- Preemergence herbicidal rating IPOHE ([5]; rate 0.0156 kg/ha): 0.0
- Preemergence herbicidal rating IPOHE ([5]; rate 0.0313 kg/ha): 0.0
- Preemergence herbicidal rating IPOHE ([5]; rate 0.0625 kg/ha): 0.0
- Preemergence herbicidal rating IPOHE ([5]; rate 0.1250 kg/ha): 2.0
- Preemergence herbicidal rating IPOHE ([5]; rate 0.2500 kg/ha): 3.0
- AMBEL herbicidal rating (AMBEL (Ragweed, Common); rate 0.0156 kg/ha): 9.0
- AMBEL herbicidal rating (AMBEL (Ragweed, Common); rate 0.0313 kg/ha): 8.0
- AMBEL herbicidal rating (AMBEL (Ragweed, Common); rate 0.0625 kg/ha): 9.0
- Preemergence herbicidal rating GALAP (GALAP (Galium); rate 0.0156 kg/ha): 0.0
- Preemergence herbicidal rating GALAP (GALAP (Galium); rate 0.0313 kg/ha): 0.0
- Preemergence herbicidal rating GALAP (GALAP (Galium); rate 0.0625 kg/ha): 0.0
- Preemergence herbicidal rating GALAP (GALAP (Galium); rate 0.1250 kg/ha): 9.0
- Preemergence herbicidal rating GALAP (GALAP (Galium); rate 0.2500 kg/ha): 9.0
- Preemergence herbicidal rating CASOB (CASOB (Sicklepod); rate 0.0156 kg/ha): 0.0
- Preemergence herbicidal rating CASOB (CASOB (Sicklepod); rate 0.0313 kg/ha): 0.0
- Preemergence herbicidal rating CASOB (CASOB (Sicklepod); rate 0.0625 kg/ha): 0.0
- Preemergence herbicidal rating CASOB (CASOB (Sicklepod); rate 0.1250 kg/ha): 0.0
- Preemergence herbicidal rating CASOB (CASOB (Sicklepod); rate 0.2500 kg/ha): 0.0
- TRZAWR herbicidal rating ([6]; rate 0.0156 kg/ha): 1.5
- TRZAWR herbicidal rating ([6]; rate 0.0313 kg/ha): 2.5
- TRZAWR herbicidal rating ([6]; rate 0.0625 kg/ha): 3.5
- Preemergence herbicidal rating ZEAMX (ZEAMX (Corn, Field); rate 0.0156 kg/ha): 0.0
- Preemergence herbicidal rating ZEAMX (ZEAMX (Corn, Field); rate 0.0313 kg/ha): 0.0
- Preemergence herbicidal rating ZEAMX (ZEAMX (Corn, Field); rate 0.0625 kg/ha): 2.0
- Preemergence herbicidal rating ZEAMX (ZEAMX (Corn, Field); rate 0.1250 kg/ha): 4.0
- Preemergence herbicidal rating ZEAMX (ZEAMX (Corn, Field); rate 0.2500 kg/ha): 5.0
- IPOHE herbicidal rating ([7]; rate 0.0156 kg/ha): 9.0
- IPOHE herbicidal rating ([7]; rate 0.0313 kg/ha): 9.0
- IPOHE herbicidal rating ([7]; rate 0.0625 kg/ha): 9.0
- Preemergence herbicidal rating CHEAL ([8]; rate 0.0156 kg/ha): 3.0
- Preemergence herbicidal rating CHEAL ([8]; rate 0.0313 kg/ha): 9.0
- Preemergence herbicidal rating CHEAL ([8]; rate 0.0625 kg/ha): 9.0
- Preemergence herbicidal rating CHEAL ([8]; rate 0.1250 kg/ha): 9.0
- Preemergence herbicidal rating CHEAL ([8]; rate 0.2500 kg/ha): 9.0

SMILES: COC(=O)CCCN1C(=O)CSC1=Nc1cc(-n2c(=O)cc(C(F)(F)F)n(C)c2=O)c(F)cc1Cl [Compound 29, Methyl 2-{{2-chloro-5-[3,6-dihydro-3-methyl-2,6-dioxo-4-(trifluoromethyl)-1(2H)-pyrimidinyl]-4-fluorophenyl}imino}-4-oxo-3-thiazolidinebutyrate]
- Postemergence herbicidal rating GLXMAW ([1]; Rate 0.0158 kg/ha): 6.5
- Postemergence herbicidal rating GLXMAW ([1]; Rate 0.0315 kg/ha): 7.5
- Postemergence herbicidal rating GLXMAW ([1]; Rate 0.0630 kg/ha): 8.0
- Preemergence herbicidal rating ECHCG (ECHCG (Barnyardgrass) [2]; rate 0.0625 kg/ha): 0.0
- Preemergence herbicidal rating ECHCG (ECHCG (Barnyardgrass) [2]; rate 0.1250 kg/ha): 0.0
- Preemergence herbicidal rating ECHCG (ECHCG (Barnyardgrass) [2]; rate 0.2500 kg/ha): 0.0
- Postemergence herbicidal rating ECHCG (ECHCG (Barnyardgrass) [3]; Rate 0.0158 kg/ha): 0.0
- Postemergence herbicidal rating ECHCG (ECHCG (Barnyardgrass) [3]; Rate 0.0315 kg/ha): 1.0
- Postemergence herbicidal rating ECHCG (ECHCG (Barnyardgrass) [3]; Rate 0.0630 kg/ha): 4.0
- Postemergence herbicidal rating SETVI (SETVI (Foxtail, Green); Rate 0.0158 kg/ha): 0.0
- Postemergence herbicidal rating SETVI (SETVI (Foxtail, Green); Rate 0.0315 kg/ha): 1.0
- Postemergence herbicidal rating SETVI (SETVI (Foxtail, Green); Rate 0.0630 kg/ha): 4.0
- Postemergence herbicidal rating ABUTH (ABUTH (Velvetleaf); Rate 0.0158 kg/ha): 9.0
- Postemergence herbicidal rating ABUTH (ABUTH (Velvetleaf); Rate 0.0315 kg/ha): 7.0
- Postemergence herbicidal rating ABUTH (ABUTH (Velvetleaf); Rate 0.0630 kg/ha): 9.0
- Herbicidal rating ECHORC ([4]; rate 0.0313 kg/ha): 4.0
- Herbicidal rating ECHORC ([4]; rate 0.0625 kg/ha): 7.0
- Herbicidal rating ECHORC ([4]; rate 0.1250 kg/ha): 7.0
- Herbicidal rating ECHORC ([4]; rate 0.2500 kg/ha): 7.0
- Preemergence herbicidal rating IPOHE ([5]; rate 0.0625 kg/ha): 0.0
- Preemergence herbicidal rating IPOHE ([5]; rate 0.1250 kg/ha): 0.0
- Preemergence herbicidal rating IPOHE ([5]; rate 0.2500 kg/ha): 4.0
- Postemergence herbicidal rating AMBEL (AMBEL (Ragweed, Common); Rate 0.0158 kg/ha): 1.0
- Postemergence herbicidal rating AMBEL (AMBEL (Ragweed, Common); Rate 0.0315 kg/ha): 4.0
- Postemergence herbicidal rating AMBEL (AMBEL (Ragweed, Common); Rate 0.0630 kg/ha): 9.0
- Preemergence herbicidal rating GALAP (GALAP (Galium); rate 0.0625 kg/ha): 0.0
- Preemergence herbicidal rating GALAP (GALAP (Galium); rate 0.1250 kg/ha): 0.0
- Preemergence herbicidal rating GALAP (GALAP (Galium); rate 0.2500 kg/ha): 0.0
- Preemergence herbicidal rating CASOB (CASOB (Sicklepod); rate 0.0625 kg/ha): 0.0
- Preemergence herbicidal rating CASOB (CASOB (Sicklepod); rate 0.1250 kg/ha): 0.0
- Preemergence herbicidal rating CASOB (CASOB (Sicklepod); rate 0.2500 kg/ha): 0.0
- Postemergence herbicidal rating TRZAWR ([6]; Rate 0.0158 kg/ha): 4.5
- Postemergence herbicidal rating TRZAWR ([6]; Rate 0.0315 kg/ha): 5.0
- Postemergence herbicidal rating TRZAWR ([6]; Rate 0.0630 kg/ha): 5.5
- Preemergence herbicidal rating ZEAMX (ZEAMX (Corn, Field); rate 0.0625 kg/ha): 0.0
- Preemergence herbicidal rating ZEAMX (ZEAMX (Corn, Field); rate 0.1250 kg/ha): 0.0
- Preemergence herbicidal rating ZEAMX (ZEAMX (Corn, Field); rate 0.2500 kg/ha): 6.0
- Postemergence herbicidal rating IPOHE ([7]; Rate 0.0158 kg/ha): 3.0
- Postemergence herbicidal rating IPOHE ([7]; Rate 0.0315 kg/ha): 9.0
- Postemergence herbicidal rating IPOHE ([7]; Rate 0.0630 kg/ha): 9.0
- Preemergence herbicidal rating CHEAL ([8]; rate 0.0625 kg/ha): 0.0
- Preemergence herbicidal rating CHEAL ([8]; rate 0.1250 kg/ha): 0.0
- Preemergence herbicidal rating CHEAL ([8]; rate 0.2500 kg/ha): 0.0
